The values below come from patent US12421228B2 (Mirati Therapeutics, Inc., priority 2019, dated 2025).

SMILES strings stand for the structures.

Assay [1] has as its target purified human, His-tagged PRC2 complex (Homo sapiens (Human), UniProt O75530). The assay can be described thus: Hot Spot HMT assay, inhibition of PRC2 enzymatic activity. Type of assay: biochemical. The conditions noted are these: 10 nM PRC2 complex, 0.05 mg/ml core histone H3, 1 μM 3H-SAM, 1 hr at 30° C.; read-out: IC50, Inhibition of PRC2-mediated Enzymatic Activity. In outline: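 Ten-point, three-fold dilution series from 1.0 μM. 10 nM PRC2 with 0.05 mg/ml core histone H3 in pH 8 Tris buffer was pre-incubated 20 min at 30 °C, then reacted with 1 μM [3H]-SAM for 1 hr at 30 °C. Tritiated H3 was captured by filter binding and scintillation-counted; IC50 was taken from the dose-response curve.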

Assay [2] deals with Karpas 422 cells (EZH2 Y641N). The assay can be described thus: Karpas 422 cell viability (Cell Titre Glo). Format: cell-based. The following applies: Homo sapiens, CTG viability, Day 4, Day 7 or Day 11 (time point not given), read-out: IC50 (nM), Inhibiting Proliferation of Cells Expressing an Activating Mutant Form of EZH2. In outline: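 Karpas 422 cells (EZH2 Y641N) in RPMI with 20% FBS, 1000 cells/well, exposed to compound from 10 μM in 3-fold dilutions down to 1.5 nM at 37° C. Viability by CellTiter-Glo at Day 4, 7 or 11; Day 11 plates re-fed with fresh medium and compound on Day 7. IC50 per time point.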

Assay [3] has as its system PRC2-mediated histone H3 methylation in Pfeiffer cells (EZH2 A677G). Nature of the assay: Tri-Methyl Histone H3 (Lys 27) sandwich ELISA in Pfeiffer cells. Type of assay: cell-based. The following applies: Homo sapiens, 96 hours incubation, H3K27me3 ELISA, read-out: IC50 (nM), Inhibition of EZH2-mediated Histone H3 Trimethylation. In outline:
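Pfeiffer DLBCL cells (EZH2 A677G) exposed to 3-fold serial compound dilutions for 96 h at 37 °C. Acid-extracted (0.4 M HCl), neutralized histones then assayed by sandwich ELISA for H3K27me3 with HRP/TMB readout at 450 nm; potency reported in bins (A ≤100 nM, B >100–≤500 nM, C >500 nM).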

purified human, His-tagged PRC2 complex, sequence (Q15910 whole entry): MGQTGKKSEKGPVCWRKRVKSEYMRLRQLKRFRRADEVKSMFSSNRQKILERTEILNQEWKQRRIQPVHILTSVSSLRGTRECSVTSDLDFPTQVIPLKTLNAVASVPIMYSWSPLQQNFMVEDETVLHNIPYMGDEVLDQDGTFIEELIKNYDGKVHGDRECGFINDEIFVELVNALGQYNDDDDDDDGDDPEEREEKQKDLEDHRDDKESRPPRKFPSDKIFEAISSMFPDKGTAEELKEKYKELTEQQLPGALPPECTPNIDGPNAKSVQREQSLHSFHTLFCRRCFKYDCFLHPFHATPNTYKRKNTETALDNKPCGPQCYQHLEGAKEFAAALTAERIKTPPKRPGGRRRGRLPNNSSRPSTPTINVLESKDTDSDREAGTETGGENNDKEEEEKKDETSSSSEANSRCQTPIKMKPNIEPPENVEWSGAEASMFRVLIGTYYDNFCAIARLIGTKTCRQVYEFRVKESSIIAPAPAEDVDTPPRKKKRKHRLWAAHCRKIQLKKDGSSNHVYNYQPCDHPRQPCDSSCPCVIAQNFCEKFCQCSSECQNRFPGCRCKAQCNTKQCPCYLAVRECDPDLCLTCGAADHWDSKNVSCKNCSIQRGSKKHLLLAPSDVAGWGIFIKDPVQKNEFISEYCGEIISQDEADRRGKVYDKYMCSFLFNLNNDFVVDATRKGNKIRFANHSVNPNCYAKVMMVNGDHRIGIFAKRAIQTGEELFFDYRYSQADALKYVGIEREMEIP
purified human, His-tagged PRC2 complex, sequence (O75530 whole entry): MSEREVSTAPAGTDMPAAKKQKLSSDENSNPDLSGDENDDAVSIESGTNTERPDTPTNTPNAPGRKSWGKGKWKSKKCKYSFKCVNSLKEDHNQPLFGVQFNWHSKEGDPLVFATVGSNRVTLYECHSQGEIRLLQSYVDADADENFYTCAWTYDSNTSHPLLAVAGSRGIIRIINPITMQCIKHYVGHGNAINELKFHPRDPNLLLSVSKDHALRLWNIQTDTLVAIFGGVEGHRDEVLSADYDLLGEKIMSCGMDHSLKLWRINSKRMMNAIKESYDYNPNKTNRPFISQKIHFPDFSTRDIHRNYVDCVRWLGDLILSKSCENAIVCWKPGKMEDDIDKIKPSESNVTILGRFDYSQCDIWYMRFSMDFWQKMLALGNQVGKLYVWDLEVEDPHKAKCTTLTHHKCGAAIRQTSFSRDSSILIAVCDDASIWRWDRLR
purified human, His-tagged PRC2 complex, sequence (Q15022 whole entry partner): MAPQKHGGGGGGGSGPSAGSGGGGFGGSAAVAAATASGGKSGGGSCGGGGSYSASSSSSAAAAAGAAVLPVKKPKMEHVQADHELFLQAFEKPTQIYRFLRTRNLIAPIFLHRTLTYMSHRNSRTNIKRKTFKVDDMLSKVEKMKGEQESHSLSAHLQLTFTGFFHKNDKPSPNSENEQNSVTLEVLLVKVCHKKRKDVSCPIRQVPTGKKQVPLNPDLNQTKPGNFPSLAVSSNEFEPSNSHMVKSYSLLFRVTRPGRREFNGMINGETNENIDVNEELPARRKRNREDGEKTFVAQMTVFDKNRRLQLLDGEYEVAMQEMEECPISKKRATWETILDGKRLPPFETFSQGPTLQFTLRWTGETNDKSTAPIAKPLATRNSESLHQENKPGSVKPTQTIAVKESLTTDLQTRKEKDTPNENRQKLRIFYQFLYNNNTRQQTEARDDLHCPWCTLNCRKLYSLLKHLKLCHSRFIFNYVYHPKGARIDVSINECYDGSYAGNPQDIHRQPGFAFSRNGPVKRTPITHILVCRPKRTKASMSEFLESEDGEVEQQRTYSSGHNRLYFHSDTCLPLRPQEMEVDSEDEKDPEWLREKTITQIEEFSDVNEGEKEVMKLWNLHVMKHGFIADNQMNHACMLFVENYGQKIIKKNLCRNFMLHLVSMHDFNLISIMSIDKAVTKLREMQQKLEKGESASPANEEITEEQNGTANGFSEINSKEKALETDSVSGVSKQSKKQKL
purified human, His-tagged PRC2 complex, sequence (Q6ZN18 whole entry partner): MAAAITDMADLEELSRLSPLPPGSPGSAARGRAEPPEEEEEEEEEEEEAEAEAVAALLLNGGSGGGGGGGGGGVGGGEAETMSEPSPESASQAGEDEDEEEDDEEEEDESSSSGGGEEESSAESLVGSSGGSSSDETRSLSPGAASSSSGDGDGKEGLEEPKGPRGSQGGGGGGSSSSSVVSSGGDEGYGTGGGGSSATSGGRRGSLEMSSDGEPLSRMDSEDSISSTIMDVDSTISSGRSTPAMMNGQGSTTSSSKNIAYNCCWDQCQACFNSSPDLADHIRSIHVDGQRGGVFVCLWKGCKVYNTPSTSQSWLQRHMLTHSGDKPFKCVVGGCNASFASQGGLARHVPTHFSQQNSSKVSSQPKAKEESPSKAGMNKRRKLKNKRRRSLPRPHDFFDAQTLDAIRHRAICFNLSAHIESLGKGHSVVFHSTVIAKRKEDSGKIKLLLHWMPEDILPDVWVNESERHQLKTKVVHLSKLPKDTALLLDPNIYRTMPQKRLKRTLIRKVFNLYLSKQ
purified human, His-tagged PRC2 complex, sequence (Q09028 whole entry partner): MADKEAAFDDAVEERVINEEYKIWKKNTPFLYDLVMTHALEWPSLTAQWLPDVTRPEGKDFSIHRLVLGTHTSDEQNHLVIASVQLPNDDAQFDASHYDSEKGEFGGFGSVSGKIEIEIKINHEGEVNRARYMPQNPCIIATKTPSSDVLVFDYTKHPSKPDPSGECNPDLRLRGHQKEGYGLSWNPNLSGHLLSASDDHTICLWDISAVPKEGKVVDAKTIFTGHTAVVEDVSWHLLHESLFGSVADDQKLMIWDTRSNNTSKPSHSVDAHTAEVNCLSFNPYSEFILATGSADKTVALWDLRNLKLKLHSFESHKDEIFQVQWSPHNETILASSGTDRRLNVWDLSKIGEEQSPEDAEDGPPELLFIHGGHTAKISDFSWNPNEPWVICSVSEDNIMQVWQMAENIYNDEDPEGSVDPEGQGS

For `Cc1cc(CN(C)C)ccc1-c1cnc(NCc2c(F)ccc3c2CCO3)c2cnncc12` [Example 6], the results for the IC50 in assay [1], in assay [2] and in assay [3] were under 0.1 µM, at most 250 nM and at most 100 nM, respectively.

For `CN(C)Cc1ccc(-c2cnc(NCc3c(F)ccc4c3CCO4)c3cnncc23)cc1F` [Example 14], the IC50 was under 0.1 µM in assay [1], at most 250 nM in assay [2] and at most 100 nM in assay [3].

For the compound `COCCOc1cc2c(-c3cc(C)nn3C)cnc(NCc3c(F)ccc4c3CCO4)c2cn1` [Example 45], the IC50 is 0.1 to 0.25 µM in assay [1], at most 250 nM in assay [2] and 100 to 500 nM in assay [3].

As to `Cc1cc(-c2cnc(NCc3c(F)ccc4c3CCO4)c3cnncc23)ccn1` [Example 12], the IC50 in assay [1] is under 0.1 µM; in assay [2] it was at most 250 nM; in assay [3] it was at most 100 nM.

Consider `CNS(=O)(=O)c1ccc(-c2cnc(NCc3c(F)ccc4c3CCO4)c3cnncc23)cc1` [Example 7], for which the IC50 in assay [1] was under 0.1 µM; in assay [2] it was at most 250 nM; in assay [3], at most 100 nM.

Take `Cc1cc(-c2cnc(NCc3c(F)ccc4c3CCO4)c3cnc(OC(C)C)cc23)n(C)n1` [Example 43]: the IC50 in assay [1] is over 0.25 µM; in assay [2], over 500 nM; in assay [3], over 500 nM.

As to `CN(C)C(=O)c1cc(-c2cnc(NCc3c(F)ccc4c3CCO4)c3cnccc23)n(C)n1` [Example 32, 5-(1-(((5-fluoro-2,3-dihydrobenzofuran-4-yl)methyl)amino)-2,7-naphthyridin-4-yl)-N,N,1-trimethyl-1H-pyrazole-3-carboxamide], the IC50 in assay [1] was under 0.1 µM; in assay [2] it was at most 250 nM; in assay [3] it was at most 100 nM.

As to `Cc1ncccc1-c1cnc(NCc2c(F)ccc3c2CCO3)c2cnncc12` [Example 11], the IC50 in assay [1] is under 0.1 µM; in assay [2], at most 250 nM; in assay [3], at most 100 nM.

As for `Cc1cc(-c2cnc(NCc3c(F)ccc4c3CCO4)c3ccc(=O)[nH]c23)n(C)n1` [Example 53], the IC50 in assay [1] is over 0.25 µM; in assay [2], at most 250 nM; in assay [3], 100 to 500 nM.

`Cc1cc(-c2cnc(NCc3c(F)ccc4c3CCO4)c3cnc(N(C)C)cc23)n(C)n1` [Example 49, 4-(1,3-dimethyl-1H-pyrazol-5-yl)-N^1-((5-fluoro-2,3-dihydrobenzofuran-4-yl)methyl)-N^6,N^6-dimethyl-2,7-naphthyridine-1,6-diamine]: the IC50 is 0.1 to 0.25 µM in assay [1], over 500 nM in assay [2] and over 500 nM in assay [3].

With `Cn1nncc1-c1cnc(NCc2c(F)ccc3c2CCO3)c2c[nH]c(=O)cc12` [Example 39], the results for the IC50 in assay [1], in assay [2] and in assay [3] were over 0.25 µM, over 500 nM and over 500 nM, respectively.

With `Cc1cc(S(C)(=O)=O)ccc1-c1cnc(NCc2c(F)ccc3c2CCO3)c2cnncc12` [Example 3], the IC50 was under 0.1 µM in assay [1], at most 250 nM in assay [2] and at most 100 nM in assay [3].

Take `COc1cc2c(-c3cc(C)nn3C)cnc(NCc3c(F)ccc4c3CCO4)c2cn1` [Example 34, 4-(1,3-dimethyl-1H-pyrazol-5-yl)-N-((5-fluoro-2,3-dihydrobenzofuran-4-yl)methyl)-6-methoxy-2,7-naphthyridin-1-amine]: the IC50 in assay [1] was 0.1 to 0.25 µM; in assay [2], over 500 nM; in assay [3], over 500 nM.

`O=c1cc2c(-c3ccc(CN4CCCC4)cc3)cnc(NCc3c(F)ccc4c3CCO4)c2c[nH]1` [Example 37]: the IC50 is 0.1 to 0.25 µM in assay [1], at most 250 nM in assay [2] and 100 to 500 nM in assay [3].
